Test results taken from US7868013B2, “Cycloalkyl substituted pyrimidinediamine compounds and their uses” (Rigel Pharmaceuticals, Inc., priority 2004, dated 2011).
Counter-ions that a name gives are not always drawn. Like-named read-outs stand apart in the source and are kept apart here.

What was measured:
A549 (lung carcinoma) = experiment: In vitro antiproliferation assay, A549 cells (TABLE 1 6 point assay; TABLE 2); type: cell-based
Experimental: (§1) Certain compounds were tested against other cell types for their ability to inhibit proliferation in standard antiproliferation assays.

[1] = system: H1299 (non-small cell lung carcinoma); experiment: In vitro antiproliferation assay, H1299 cells (TABLE 1 6 point assay; TABLE 2); type: cell-based
Experimental: as §1

[2] = Homo sapiens, A549, A549 cells, 6 point assay, read-out: A549, 6pt (IC50, inhibition of proliferation)
[3] = Homo sapiens, NCI-H1299, H1299 cells, 6 point assay, read-out: H1299, 6pt (IC50, inhibition of proliferation)
[4] = Homo sapiens, A549, 6 point assay, A549 cells, read-out: IC50, A549 cells
[5] = Homo sapiens, NCI-H1299, 6 point assay, H1299 cells, read-out: IC50, H1299 cells
[6] = 6 point assay, A549 cells, read-out: IC50, A549 cells
[7] = 6 point assay, H1299 cells, read-out: IC50, H1299 cells

Row | Compound | IC50 (A549 (lung carcinoma); [2]) [nM] | IC50 [1, 3] [nM] | IC50 (A549 (lung carcinoma); [4]) [nM] | IC50 [1, 5] [nM] | further results
1 | NC(=O)[C@@H]1[C@H](Nc2nc(Nc3ccc(OC(F)(F)F)c(Cl)c3)ncc2F)[C@H]2C=C[C@@H]1C2 [compound 148, (1R,2R,3S,4S)-N4-(3-Aminocarbonylbicyclo[2.2.1]hept-5-en-2-yl)-N2-(3-chloro-4-trifluoromethoxyphenyl)-5-fluoro-2,4-pyrimidinediamine] | 1000 to 10000 | 1000 to 10000 | – | – | –
2 | CN1CCC(Oc2cccc(Nc3ncc(F)c(N[C@H]4[C@@H](C(N)=O)[C@@H]5C=C[C@H]4C5)n3)c2)CC1 [compound 149, (1R,2R,3S,4S)-N4-(3-Aminocarbonylbicyclo[2.2.1]hept-5-en-2-yl)-5-fluoro-N2-[3-(1-methylpiperidin-4-yloxy)phenyl]-2,4-pyrimidinediamine] | ≤ 100 | ≤ 100 | – | – | –
3 | Cc1cc(Nc2ncc(F)c(N[C@H]3[C@@H](C(N)=O)[C@@H]4C=C[C@H]3C4)n2)ccc1OC1CCN(C)CC1 [compound 150, (1R,2R,3S,4S)-N4-(3-Aminocarbonylbicyclo[2.2.1]hept-5-en-2-yl)-5-fluoro-N2-[3-methyl-4-(1-methylpiperidin-4-yloxy)phenyl]-2,4-pyrimidinediamine] | ≤ 100 | ≤ 100 | – | – | –
4 | CN1CCC(Oc2ccc(Nc3ncc(F)c(N[C@H]4[C@@H](C(N)=O)[C@@H]5C=C[C@H]4C5)n3)cc2C(F)(F)F)CC1 [compound 151, (1R,2R,3S,4S)-N4-(3-Aminocarbonylbicyclo[2.2.1]hept-5-en-2-yl)-5-fluoro-N2-[4-(1-methylpiperidin-4-yloxy)-3-trifluoromethylphenyl)-2,4-pyrimidinediamine] | ≤ 100 | ≤ 100 | – | – | –
5 | CN1CCC(Oc2ccc(Nc3ncc(F)c(N[C@H]4[C@@H](C(N)=O)[C@@H]5C=C[C@H]4C5)n3)cc2Cl)CC1 [compound 152, (1R,2R,3S,4S)-N4-(3-Aminocarbonylbicyclo[2.2.1]hept-5-en-2-yl)-N2-[3-chloro-4-(1-methylpiperidin-4-yloxy)phenyl]-5-fluoro-2,4-pyrimidinediamine] | ≤ 100 | ≤ 100 | – | – | –
6 | Cc1cc(Nc2ncc(F)c(N[C@H]3[C@@H](C(N)=O)[C@@H]4C=C[C@H]3C4)n2)ccc1OCC1CCN(C)CC1 [compound 153, (1R,2R,3S,4S)-N4-(3-Aminocarbonylbicyclo[2.2.1]hept-5-en-2-yl)-5-fluoro-N2-[4-(1-methylpiperidin-4-ylmethyleneoxy)-3-methylphenyl]-2,4-pyrimidinediamine] | ≤ 100 | ≤ 100 | – | – | –
7 | Cc1cc(Nc2ncc(F)c(N[C@@H]3[C@H](C(N)=O)[C@@H]4C=C[C@H]3C4)n2)ccc1N1CCN(C)CC1 [compound 154] | 100 to 1000 | 100 to 1000 | – | – | –
8 | Cc1cc(Nc2ncc(F)c(N[C@H]3[C@@H](C(N)=O)[C@H]4C=C[C@@H]3C4)n2)ccc1N1CCN(C)CC1 [compound 155, (1S,2R,3S,4R)-N4-(3-Aminocarbonylbicyclo[2.2.1]hept-5-en-2-yl)-5-fluoro-N2-[3-methyl-4-(4-methylpiperazin-1-yl)phenyl]-2,4-pyrimidinediamine] | 1000 to 10000 | 1000 to 10000 | – | – | –
9 | CN(C)CCN1CCc2cc(Nc3ncc(F)c(N[C@H]4[C@@H](C(N)=O)[C@@H]5C=C[C@H]4C5)n3)ccc21 [compound 186, (1R,2R,3S,4S)-N4-[3-Aminocarbonylbicyclo[2.2.1]hept-5-en-2-yl]-N2-[1-(2-dimethylaminoethyl)-2,3-dihydroindol-5-yl]-5-fluoro-2,4-pyrimidinediamine] | ≤ 100 | ≤ 100 | – | – | –
10 | CN(C)CCN1CCc2cc(Nc3ncc(F)c(N[C@@H]4[C@H](C(N)=O)[C@H]5C=C[C@@H]4C5)n3)ccc21 [compound 187, (1S,2S,3R,4R)-N4-[3-Aminocarbonylbicyclo[2.2.1]hept-5-en-2-yl]-N2-[1-(2-dimethylaminoethyl)-2,3-dihydroindol-5-yl]-5-fluoro-2,4-pyrimidinediamine] | 1000 to 10000 | 1000 to 10000 | – | – | –
11 | CS(=O)(=O)N1CCc2cc(Nc3ncc(F)c(N[C@H]4[C@@H](C(N)=O)[C@@H]5C=C[C@H]4C5)n3)ccc21 [compound 188, (1R,2R,3S,4S)-N4-(3-Aminocarbonylbicyclo[2.2.1]hept-5-en-2-yl)-5-fluoro-N2-[1-methylsulfonyl-2,3-dihydro-indol-5-yl]-2,4-pyrimidinediamine] | ≤ 100 | ≤ 100 | – | – | –
12 | CN(C)CCN1CCOc2cc(Nc3ncc(F)c(N[C@H]4[C@@H](C(N)=O)[C@@H]5C=C[C@H]4C5)n3)ccc21 [compound 189, (1R,2R,3S,4S)-N4-(3-Aminocarbonylbicyclo[2.2.1]hept-5-en-2-yl)-5-fluoro-N2-(1-[2-(dimethylamino)ethyl]-3,4-dihydro-4H-benz[1,4]oxazin-6-yl}-2,4-pyrimidinediamine] | ≤ 100 | ≤ 100 | – | – | –
13 | Cc1cc(Nc2ncc(F)c(N[C@@H]3[C@H](C(=O)NC4CC4)[C@H]4C=C[C@@H]3C4)n2)ccc1N1CCN(C)CC1 [compound 191, (1S,2S,3R,4R)-N4-[3-(N-Cyclopropyl)aminocarbonylbicyclo[2.2.1]hept-5-en-2-yl]-5-fluoro-N2-[3-methyl-4-(4-methylpiperazin-1-yl)phenyl]-2,4-pyrimidinediamine] | 100 to 1000 | 1000 to 10000 | – | – | –
14 | CN1CCN(c2ccc(Nc3ncc(F)c(NC4CCCC4C(N)=O)n3)cc2)CC1 (stereo not drawn) [compound 203, N4-(2-Carboxamidocyclopentyl)-5-fluoro-N2-[4-(4-methylpiperazino)phenyl]-2,4-pyrimidinediamine Monohydrochloride Salt] | – | – | – | – | IC50 (A549 (lung carcinoma); [6]): 100 to 1000 nM; IC50 [1, 7]: 100 to 1000 nM
15 | CN1CCN(c2ccc(Nc3ncc(F)c(NC4CCCC4C(N)=O)n3)cc2Cl)CC1 (stereo not drawn) [compound 205, (cis)-N4-(2-Carboxamidocyclopent-1-yl)-N2-[3-chloro-4-(4-methylpiperazino)phenyl]-5-fluoro-2,4-pyrimidinediamine] | – | – | – | – | IC50 (A549 (lung carcinoma); [6]): 100 to 1000 nM; IC50 [1, 7]: 100 to 1000 nM

Now from value to compound, other results behind:

Row | IC50 (A549 (lung carcinoma); [2]) [nM] | IC50 [1, 3] [nM] | IC50 (A549 (lung carcinoma); [4]) [nM] | IC50 [1, 5] [nM] | Compound | further results
16 | ≤ 100 | ≤ 100 | – | – | Cc1cc(Nc2ncc(F)c(N[C@H]3[C@@H](C(=O)NC4CCC4)[C@@H]4C=C[C@H]3C4)n2)ccc1N1CCN(C)CC1 [compound 192, (1R,2R,3S,4S)-N4-[3-(N-Cyclobutyl)aminocarbonylbicyclo[2.2.1]hept-5-en-2-yl]-5-fluoro-N2-[3-methyl-4-(4-methylpiperazin-1-yl)phenyl]-2,4-pyrimidinediamine] | –
17 | – | – | > 10000 | 1000 to 10000 | Cc1cc(Nc2ncc(F)c(N[C@@H]3[C@H](C(=O)NC4CCC4)[C@H]4C=C[C@@H]3C4)n2)ccc1N1CCN(C)CC1 [compound 193, (1S,2S,3R,4R)-N4-[3-(N-Cyclobutyl)aminocarbonylbicyclo[2.2.1]hept-5-en-2-yl]-5-fluoro-N2-[3-methyl-4-(4-methylpiperazin-1-yl)phenyl]-2,4-pyrimidinediamine] | –
18 | – | – | 100 to 1000 | 100 to 1000 | CN1CCN(c2ccc(Nc3ncc(F)c(NC4CCCC4C(N)=O)n3)cc2)CC1 (stereo not drawn) [compound 194, N4-(2-Carboxamidocyclopentyl)-5-fluoro-N2-[4-(4-methylpiperazino)phenyl]-2,4-pyrimidinediamine] | –
19 | – | – | 100 to 1000 | 100 to 1000 | CN1CCN(c2cccc(Nc3ncc(F)c(NC4CCCC4C(N)=O)n3)c2)CC1 (stereo not drawn) [compound 195] | –
20 | – | – | 100 to 1000 | 100 to 1000 | CC(=O)N1CCN(c2ccc(Nc3ncc(F)c(NC4CCCC4C(N)=O)n3)cc2)CC1 (stereo not drawn) [compound 196, N2-[4-(4-Acetylpiperazino)phenyl]-N4-(2-carboxamidocyclopentyl)-5-fluoro-2,4-pyrimidinediamine] | –
21 | – | – | 1000 to 10000 | 100 to 1000 | CC(=O)N1CCN(c2cccc(Nc3ncc(F)c(NC4CCCC4C(N)=O)n3)c2)CC1 (stereo not drawn) [compound 197, N2-[3-(4-Acetylpiperazino)phenyl]-N4-(2-carboxamidocyclopentyl)-5-fluoro-2,4-pyrimidinediamine] | –
22 | – | – | 100 to 1000 | 100 to 1000 | NC(=O)C1CCCC1Nc1nc(Nc2ccc(N3CCOCC3)cc2)ncc1F (stereo not drawn) [compound 198, N4-(2-Carboxamidocyclopentyl)-5-fluoro-N2-(4-morpholinophenyl)-2,4-pyrimidinediamine] | –
23 | – | – | 100 to 1000 | 100 to 1000 | CCOC(=O)N1CCN(c2ccc(Nc3ncc(F)c(NC4CCCC4C(N)=O)n3)cc2)CC1 (stereo not drawn) [compound 199, N4-(2-Carboxamidocyclopentyl)-N2-[4-(4-ethoxycarbonylpiperazino)phenyl]-5-fluoro-2,4-pyrimidinediamine] | –
24 | – | – | 100 to 1000 | 1000 to 10000 | NC(=O)C1CCCC1Nc1nc(Nc2cccc(N3CCOCC3)c2)ncc1F (stereo not drawn) [compound 200, N4-(2-Carboxamidocyclopentyl)-5-fluoro-N2-(3-morpholinophenyl)-2,4-pyrimidinediamine] | –
25 | – | – | 100 to 1000 | 1000 to 10000 | CCOC(=O)N1CCN(c2cccc(Nc3ncc(F)c(NC4CCCC4C(N)=O)n3)c2)CC1 (stereo not drawn) [compound 201, N4-(2-Carboxamidocyclopentyl)-N2-[3-(4-ethoxycarbonylpiperazino)phenyl]-5-fluoro-2,4-pyrimidinediamine] | –
26 | – | – | 100 to 1000 | 100 to 1000 | CN1CCN(c2ccc(Nc3ncc(F)c(NC4CCCC4C(N)=O)n3)cc2Cl)CC1 (stereo not drawn) [compound 202, N4-(2-Carboxamidocyclopentyl)-N2-[3-chloro-4-(4-methylpiperazino)phenyl]-5-fluoro-2,4-pyrimidinediamine] | –
27 | – | – | 100 to 1000 | 1000 to 10000 | CN1CCN(c2ccc(Nc3ncc(F)c(NC4CCCC4C(N)=O)n3)cc2C(F)(F)F)CC1 (stereo not drawn) [compound 204, (cis)-N4-(2-Carboxamidocyclopent-1-yl)-5-fluoro-N2-[4-(4-methylpiperazino)-3-trifluoromethylphenyl]-1,4-pyrimidinediamine] | –
